Here are results for 32 compounds from ChEMBL document CHEMBL3797025, “Spirooxadiazoline oxindoles with promising in vitro antitumor activities” (Medchemcomm, 2016).

SMILES strings stand for the structures. Calls of active or inactive are those of the source. No cut-off for these calls is given here.

The nature of data set [1]: Antiproliferative activity against human p53 +/+ HCT116 cells measured after 72 hrs by MTS assay. The following applies: HCT-116, 72 h. The class given is functional.
A short description of data set [2]: Antiproliferative activity against human p53 -/- HCT116 cells measured after 72 hrs by MTS assay. The class given is functional. The note with it: HCT-116, 72 h.
A further data set relates to HepG2. Briefly: Antiproliferative activity against human HepG2 cells expressing wild-type P53 measured after 72 hrs by MTS assay. The following applies: HepG2, 72 h. The class given is functional.
A short description of data set [3]: Antiproliferative activity against human SW620 cells expressing P53 mutant measured after 72 hrs by MTS assay. The class given is functional. The following applies: SW-620, 72 h.
Data set [4] deals with HCT-116. Briefly: Induction of apoptosis in human p53 +/+ HCT116 cells assessed as activation of caspase3 at 5 or 10 uM after 24 hrs by Caspase-Glo 3/7 assay. The format is functional, cell-based.
The subject of data set [5] is HCT-116. The data set is described as follows: Induction of apoptosis in human p53 +/+ HCT116 cells assessed as activation of caspase7 at 5 or 10 uM after 24 hrs by Caspase-Glo 3/7 assay. The format is functional, cell-based.
Data set [6] relates to HCT-116. Briefly: Induction of apoptosis in human p53 +/+ HCT116 cells assessed as increase in PARP cleavage at 5 or 10 uM after 24 hrs by western blot analysis. The format is functional, cell-based.
The target in data set [7] is Cellular tumor antigen p53 (Homo sapiens) (UniProt P04637). The data set is described as follows: Induction of p53 phosphorylation at serine-15 in human p53 +/+ HCT 116 cells bat 5 or 10 uM after 24 hrs by western blot analysis. The class given is cell-based.
Chain of Cellular tumor antigen p53 (Homo sapiens) (P04637 whole entry, looked up): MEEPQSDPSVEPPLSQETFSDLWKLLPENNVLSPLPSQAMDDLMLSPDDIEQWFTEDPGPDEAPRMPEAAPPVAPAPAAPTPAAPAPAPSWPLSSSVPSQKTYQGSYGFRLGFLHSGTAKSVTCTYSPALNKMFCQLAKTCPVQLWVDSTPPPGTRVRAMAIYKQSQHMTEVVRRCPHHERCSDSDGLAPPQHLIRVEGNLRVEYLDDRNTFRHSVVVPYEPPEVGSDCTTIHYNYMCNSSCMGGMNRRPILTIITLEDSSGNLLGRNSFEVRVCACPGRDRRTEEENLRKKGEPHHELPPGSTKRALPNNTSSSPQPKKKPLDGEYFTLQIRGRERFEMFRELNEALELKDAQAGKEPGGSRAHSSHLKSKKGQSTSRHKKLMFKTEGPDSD
Data set [8] can be described thus: Chemical stability in phosphate buffer at pH 7.4 and 37 degC measured for 3 days by HPLC analysis. The class given is physicochemical. The following applies: pH 7.4, 72 h.
Data set [9] is described as follows: Metabolic stability at human plasma assessed as compound degradation at 37 degC after 72 hrs by HPLC analysis. The format is ADME, cell-free. The following applies: read-out: Drug degradation.
Data set [10] in a line: Half life in Sprague-Dawley rat liver microsomes at 37 degC in presence of NADPH generating system by HPLC analysis. The class given is ADME.

`O=C1Nc2cc(Cl)ccc2[C@]12ON=C(c1ccccc1)N2c1ccccc1`: the GI50 in [1] was found to be 28.4 µM; in [2], 35.5 µM.

On to `O=C1Nc2ccc(Br)cc2[C@]12ON=C(c1cccc(Cl)c1)N2c1cccc(Cl)c1`, for which the GI50 in data set [1] was found to be 2 µM; in data set [2] it was 2.9 µM; in the data set on HepG2, 2.1 µM; in data set [3], 2.1 µM. In addition, the result in the data set with HCT-116 [4], with HCT-116 [5] and with HCT-116 [6] was Active. Also, in data set [7], the outcome was inactive. Also, in data set [8], the Stability result was “Stable”. The metabolised at 72 h in [9] was 38%. Moreover, the half-life in data set [10] was found to be 33.5 min.

On to `COc1ccc(C2=N[C@@H](c3ccc(Cl)cc3)[C@@H](c3ccc(Cl)cc3)N2C(=O)N2CCNC(=O)C2)c(OC(C)C)c1` [NUTLIN-3], for which the GI50 in [1] stood at 4 µM; in data set [2] it was 47.8 µM.

With `O=C1Nc2ccc(Br)cc2[C@]12ON=C(c1ccccc1)N2c1cccc(Cl)c1`, the concentration for 50% growth inhibition (GI50) in data set [1] amounted to 4.7 µM; in data set [2], 7.5 µM; in the data set on HepG2, 3.5 µM; in data set [3], 4.2 µM.

On to `O=C1Nc2ccc(Cl)cc2[C@]12ON=C(c1ccc(Cl)cc1)N2c1cccc(Cl)c1`, for which the GI50 in data set [1] was found to be 25.6 µM; in [2] it was 29 µM.

In turn, `O=C1Nc2ccc(Br)cc2[C@]12ON=C(c1ccccc1)N2c1ccccc1` returned a 50% growth inhibitory concentration (GI50) in data set [1] of 13.5 µM.

Consider `O=C1Nc2ccc(Br)cc2[C@]12ON=C(c1cccc(Br)c1)N2c1cccc(Br)c1`, for which the GI50 in data set [1] was found to be 3.2 µM; in data set [2] it was 6 µM; with HepG2, 2.2 µM; in data set [3], 3.7 µM.

In the case of `O=C1Nc2ccc(Br)cc2[C@]12ON=C(c1cccc(Cl)c1F)N2c1cccc(Cl)c1`, the GI50 in [1] came to 3.2 µM; in data set [2] it was 4.4 µM; in the data set on HepG2 it was 2.5 µM; in data set [3], 3.5 µM.

Regarding `O=C1Nc2ccccc2[C@]12ON=C(c1ccccc1)N2c1ccc(Cl)cc1`, the 50% growth inhibitory concentration (GI50) in data set [1] came to 54.5 µM.

On to `O=C1Nc2cc(Cl)ccc2[C@]12ON=C(c1cccc(Cl)c1)N2c1cccc(Cl)c1`, for which the GI50 in data set [1] was determined as 6.6 µM; in data set [2], 7.8 µM; in the data set on HepG2, 4.4 µM; in data set [3], 6.7 µM.

For `O=C1Nc2ccc(Cl)cc2[C@]12ON=C(c1ccccc1)N2c1ccc(Cl)cc1`, the figures for the GI50 in data set [1] and in data set [2] were 27.1 µM and 27 µM, respectively.

Regarding `O=C1Nc2ccccc2[C@]12ON=C(c1ccccc1)N2c1ccc(F)cc1`, growth in data set [1] was halved (GI50) at 99.6 µM.

Regarding `Cc1ccc(C2=NO[C@@]3(C(=O)Nc4cc(Cl)ccc43)N2c2ccccc2)cc1`, in data set [1], the GI50 amounted to 50.6 µM.

On to `O=C1Nc2ccc(Br)cc2[C@]12ON=C(c1cccc(Cl)c1)N2c1ccc(F)c(Cl)c1`, for which the GI50 was 6.6 µM in data set [1], 7.2 µM in data set [2], 4 µM with HepG2 and 6.7 µM in data set [3].

Consider `O=C1Nc2cc(Cl)ccc2[C@]12ON=C(c1ccc(Cl)cc1)N2c1ccccc1`, for which the GI50 in [1] was found to be 26.5 µM; in data set [2], 30.6 µM.

On to `O=C1Nc2ccc(Cl)cc2[C@]12ON=C(c1ccc(Cl)cc1)N2c1ccc(Cl)cc1`, for which the values for the GI50 in data set [1] and in [2] were 17.6 µM and 18 µM, respectively.

Take `O=C1Nc2ccc(Cl)cc2[C@]12ON=C(c1cccc(Cl)c1)N2c1ccc(Cl)cc1`: the GI50 in [1] stood at 21.3 µM; in data set [2] it was 21.8 µM.

As for `O=C1Nc2ccccc2[C@]12ON=C(c1ccccc1)N2c1cccc(Cl)c1`, the GI50 in data set [1] stood at 70.1 µM.

Take `O=C1Nc2ccc(Cl)cc2[C@]12ON=C(c1ccccc1)N2c1cccc(Cl)c1`: the GI50 in data set [1] worked out at 26.4 µM; in data set [2], 41.6 µM.

`O=C1Nc2ccccc2[C@]12ON=C(c1ccc(Cl)cc1)N2c1cccc(Cl)c1`: in data set [1], the GI50 was found to be 33.7 µM.

On to `O=C1Nc2ccc(Br)cc2[C@]12ON=C(c1cccc(Cl)c1)N2c1cccc(Cl)c1F`, for which the GI50 was 1.7 µM in [1], 2 µM in [2], 1.2 µM with HepG2 and 2 µM in data set [3].

For the compound `O=C1Nc2ccccc2[C@]12ON=C(c1cccc(Cl)c1)N2c1ccc(Cl)cc1`, the GI50 in [1] was 38.4 µM.

As to `O=C1Nc2ccccc2[C@]12ON=C(c1cccc(Cl)c1)N2c1cccc(Cl)c1`, halving of growth in [1] (GI50) required 32.6 µM.

Turning to `O=C1Nc2ccccc2[C@]12ON=C(c1ccc(Cl)cc1)N2c1ccc(Cl)cc1`, the GI50 in data set [1] turned out to be 31.2 µM.

For `O=C1Nc2cc(Cl)ccc2[C@]12ON=C(c1cccc(Cl)c1)N2c1ccc(Cl)cc1`, growth in data set [1] was halved (GI50) at 28.7 µM.

In [1], `O=C1Nc2ccc(Cl)cc2[C@]12ON=C(c1ccccc1)N2c1ccccc1` displayed a GI50 of 39.1 µM.

With `O=C1Nc2ccc(Br)cc2[C@]12ON=C(c1ccc(Cl)cc1)N2c1cccc(Cl)c1`, the GI50 in data set [1] worked out at 7.7 µM; in [2] it was 12.3 µM; in the data set on HepG2, 4.1 µM; in data set [3] it was 8 µM.

In the case of `O=C1Nc2ccc(Cl)cc2[C@]12ON=C(c1cccc(Cl)c1)N2c1cccc(Cl)c1`, the GI50 in data set [1] was 4.6 µM; in [2] it was 6.8 µM; with HepG2 it was 3.3 µM; in data set [3], 3.9 µM.

For the compound `O=C1Nc2cc(Cl)ccc2[C@]12ON=C(c1ccc(Cl)cc1)N2c1cccc(Cl)c1`, the GI50 in [1] turned out to be 20.2 µM.

With `O=C1Nc2cc(Cl)ccc2[C@]12ON=C(c1ccc(Cl)cc1)N2c1ccc(Cl)cc1`, the concentration for 50% growth inhibition (GI50) in [1] was 13.2 µM.

Regarding `O=C1Nc2ccc(Br)cc2[C@]12ON=C(c1ccccc1)N2c1ccc(Cl)cc1`, the values for the GI50 in [1] and in data set [2] were 21.9 µM and 25.8 µM, respectively.

`O=C1Nc2cc(Cl)ccc2[C@]12ON=C(c1ccccc1)N2c1ccc(Cl)cc1` yielded a GI50 in [1] of 31.8 µM.
